# From paper PMC11003488 (Journal of Enzyme Inhibition and Medicinal Chemistry, 2023)
# What was measured:
# Type in all cases: cell-based
# CCRF-CEM = experiment: NCI-60 SRB growth inhibition, one-dose and five-dose; conditions: Homo sapiens
# HL-60(TB) = experiment: cells; conditions: Homo sapiens
# K-562 = experiment: NCI-60 SRB growth inhibition, one-dose and five-dose; conditions: Homo sapiens
# MOLT-4 = experiment: as above; conditions: Homo sapiens
# RPMI-8226 = experiment: as above; conditions: Homo sapiens
# SR = experiment: as above; conditions: Homo sapiens
# EKVX = experiment: as above; conditions: Homo sapiens
# NCI-H226 = experiment: as above; conditions: Homo sapiens
# NCI-H23 = experiment: as above; conditions: Homo sapiens
# NCI-H322M = experiment: as above; conditions: Homo sapiens
# NCI-H522 = experiment: as above; conditions: Homo sapiens
# COLO 205 = experiment: as above; conditions: Homo sapiens
# HCC-2998 = experiment: as above; conditions: Homo sapiens
# HCT-15 = experiment: as above; conditions: Homo sapiens
# HT29 = experiment: as above; conditions: Homo sapiens
# KM12 = experiment: as above; conditions: Homo sapiens
# SF-268 = experiment: as above; conditions: Homo sapiens
# SNB-19 = experiment: as above; conditions: Homo sapiens
# SNB-75 = experiment: as above; conditions: Homo sapiens
# U251 = experiment: as above; conditions: Homo sapiens
# LOX IMVI = experiment: as above; conditions: Homo sapiens
# MALME-3M = experiment: as above; conditions: Homo sapiens
# M14 = experiment: as above; conditions: Homo sapiens
# MDA-MB-435 = experiment: as above; conditions: Homo sapiens
# SK-MEL-2 = experiment: as above; conditions: Homo sapiens
# SK-MEL-28 = experiment: as above; conditions: Homo sapiens
# UACC-257 = experiment: as above; conditions: Homo sapiens
# IGROV1 = experiment: as above; conditions: Homo sapiens
# OVCAR-3 = experiment: as above; conditions: Homo sapiens
# OVCAR-4 = experiment: as above; conditions: Homo sapiens
# OVCAR-8 = experiment: as above; conditions: Homo sapiens
# NCI/ADR-RES = experiment: as above; conditions: Homo sapiens
# 786-0 = experiment: as above; conditions: Homo sapiens
# A498 = experiment: as above; conditions: Homo sapiens
# ACHN = experiment: as above; conditions: Homo sapiens
# CAKI-1 = experiment: as above; conditions: Homo sapiens
# RXF 393 = experiment: as above; conditions: Homo sapiens
# SN12C = experiment: as above; conditions: Homo sapiens
# PC-3 = experiment: as above; conditions: Homo sapiens
# MCF7 = experiment: as above; conditions: Homo sapiens
# HS 578 T = experiment: as above; conditions: Homo sapiens
# T-47D = experiment: as above; conditions: Homo sapiens, T47D
# MDA-MB-468 = experiment: as above; conditions: Homo sapiens
# [1] = read-out: percent growth inhibition
compound,measurement,setting,value
"CC(=O)Nc1ccc(/C=C/C(=O)c2cccc(NCc3ccc(C)cc3)c2)cc1 [Compound 5f, (E)-N-(4–(3-(3-((4-methylbenzyl)amino)phenyl)-3-oxoprop-1-en-1-yl)phenyl)acetamide]",GI50,CCRF-CEM,2.84 µM
same,inhibition at 10 µM,CCRF-CEM; [1],87.2%
same,GI50,HL-60(TB); HL-60,3.99 µM
same,inhibition at 10 µM,"HL-60(TB); HL-60, read-out: percent growth inhibition",52%
same,GI50,K-562; K562,3.04 µM
same,inhibition at 10 µM,"K-562; K562, read-out: percent growth inhibition",64.2%
same,GI50,MOLT-4; MOLT-4,2.69 µM
same,inhibition at 10 µM,"MOLT-4; MOLT-4, read-out: percent growth inhibition",62%
same,GI50,RPMI-8226; RPMI-8226,2.29 µM
same,inhibition at 10 µM,"RPMI-8226; RPMI-8226, read-out: percent growth inhibition",105%
same,GI50,SR,1.51 µM
same,inhibition at 10 µM,SR; [1],96.5%
same,GI50,EKVX,12.6 µM
same,inhibition at 10 µM,EKVX; [1],20.9%
same,GI50,NCI-H226; NCI-H226,13.7 µM
same,inhibition at 10 µM,"NCI-H226; NCI-H226, read-out: percent growth inhibition",21.8%
same,GI50,NCI-H23; NCI-H23,10.4 µM
same,inhibition at 10 µM,"NCI-H23; NCI-H23, read-out: percent growth inhibition",26.2%
same,GI50,NCI-H322M,15.1 µM
same,inhibition at 10 µM,NCI-H322M; [1],22.5%
same,GI50,NCI-H522; NCI-H522,11 µM
same,inhibition at 10 µM,"NCI-H522; NCI-H522, read-out: percent growth inhibition",106%
same,GI50,COLO 205; COLO 205,16 µM
same,inhibition at 10 µM,"COLO 205; COLO 205, read-out: percent growth inhibition",53.7%
same,GI50,HCC-2998; HCC 2998,13.9 µM
same,inhibition at 10 µM,"HCC-2998; HCC 2998, read-out: percent growth inhibition",15.2%
same,GI50,HCT-15; HCT-15,3.31 µM
same,inhibition at 10 µM,"HCT-15; HCT-15, read-out: percent growth inhibition",113%
same,GI50,HT29; HT-29,10.7 µM
same,inhibition at 10 µM,"HT29; HT-29, read-out: percent growth inhibition",128%
same,GI50,KM12; KM12,7.04 µM
same,inhibition at 10 µM,"KM12; KM12, read-out: percent growth inhibition",136%
same,GI50,SF-268; SF-268,4.58 µM
same,inhibition at 10 µM,"SF-268; SF-268, read-out: percent growth inhibition",45.8%
same,GI50,SNB-19; SNB-19,12.4 µM
same,inhibition at 10 µM,"SNB-19; SNB-19, read-out: percent growth inhibition",31.4%
same,GI50,SNB-75; SNB-75,12.5 µM
same,inhibition at 10 µM,"SNB-75; SNB-75, read-out: percent growth inhibition",32.3%
same,GI50,U251; U-251,3.89 µM
same,inhibition at 10 µM,"U251; U-251, read-out: percent growth inhibition",127%
same,GI50,LOX IMVI,2.97 µM
same,inhibition at 10 µM,LOX IMVI; [1],157%
same,GI50,MALME-3M,12.3 µM
same,inhibition at 10 µM,MALME-3M; [1],31.1%
same,GI50,M14; M14,14 µM
same,inhibition at 10 µM,"M14; M14, read-out: percent growth inhibition",54.7%
same,GI50,MDA-MB-435; MDA-MB-435,6.21 µM
same,inhibition at 10 µM,"MDA-MB-435; MDA-MB-435, read-out: percent growth inhibition",35.7%
same,GI50,SK-MEL-2; SK-MEL-2,11.5 µM
same,inhibition at 10 µM,"SK-MEL-2; SK-MEL-2, read-out: percent growth inhibition",16.5%
same,GI50,SK-MEL-28; SK-MEL-28,15.2 µM
same,inhibition at 10 µM,"SK-MEL-28; SK-MEL-28, read-out: percent growth inhibition",25%
same,GI50,UACC-257; UACC-257,14.2 µM
same,inhibition at 10 µM,"UACC-257; UACC-257, read-out: percent growth inhibition",15.7%
same,GI50,IGROV1; IGROV-1,12.9 µM
same,inhibition at 10 µM,"IGROV1; IGROV-1, read-out: percent growth inhibition",39%
same,GI50,OVCAR-3; OVCAR-3,3.19 µM
same,inhibition at 10 µM,"OVCAR-3; OVCAR-3, read-out: percent growth inhibition",78%
same,GI50,OVCAR-4; OVCAR-4,6.18 µM
same,inhibition at 10 µM,"OVCAR-4; OVCAR-4, read-out: percent growth inhibition",56.1%
same,GI50,OVCAR-8; OVCAR-8,2.98 µM
same,inhibition at 10 µM,"OVCAR-8; OVCAR-8, read-out: percent growth inhibition",88.1%
same,GI50,NCI/ADR-RES,3.72 µM
same,GI50,786-0; 786-0,10.3 µM
same,inhibition at 10 µM,"786-0; 786-0, read-out: percent growth inhibition",60.4%
same,GI50,A498; A498,17.9 µM
same,inhibition at 10 µM,"A498; A498, read-out: percent growth inhibition",-0.63%
same,GI50,ACHN,13.2 µM
same,inhibition at 10 µM,ACHN; [1],65%
same,GI50,CAKI-1; CAKI-1,10.8 µM
same,inhibition at 10 µM,"CAKI-1; CAKI-1, read-out: percent growth inhibition",23.2%
same,GI50,RXF 393; RXF 393,10.9 µM
same,inhibition at 10 µM,"RXF 393; RXF 393, read-out: percent growth inhibition",32.9%
same,GI50,SN12C,7.76 µM
same,inhibition at 10 µM,SN12C; [1],88%
same,GI50,PC-3; PC-3,12.7 µM
same,inhibition at 10 µM,"PC-3; PC-3, read-out: percent growth inhibition",67.2%
same,GI50,MCF7; MCF7,3.37 µM
same,inhibition at 10 µM,"MCF7; MCF7, read-out: percent growth inhibition",90.5%
same,GI50,HS 578 T,15.4 µM
same,inhibition at 10 µM,HS 578 T; [1],47%
same,GI50,T-47D,10.2 µM
same,inhibition at 10 µM,T-47D; [1],86.5%
same,GI50,MDA-MB-468; MDA-MB-468,4.23 µM
same,inhibition at 10 µM,"MDA-MB-468; MDA-MB-468, read-out: percent growth inhibition",85.6%
